Common to all, as to format: in vivo
Set-up in all cases: key: “0” means that there was no or little difference in the degree of germination or growth between the treated and the untreated tested plants at the time of examination; “5” means that the test plants died complete or their germination or growth was completely inhibited

Assay [1] has as its system johnsongrass (Sorghum halepense). The assay can be described thus: Test Example 5: soil incorporation treatment on upland fields. The following applies: examined after 19 days, index 0-5. The text has this: Soil Incorporation Treatment on Upland Fields Cylindrical plastic pots of 10 cm in diameter and a 10 cm in depth were filled with upland soil. The soil from the surface to 3 cm in depth was taken and mixed with the dilution which was given by diluting the emulsifiable concentrates of the test compounds, formulated according to Formulation Example 2, with water at a volume of 606 liters per hectare. Thereafter, the treated soil was put back to the pots, in which johnsongrass (Sorghum halepense) was sowed at 1.5 cm in depth. The test plants were grown in a greenhouse for 19 days, and the herbicidal activity was examined.

Assay [2] deals with hemp sesbania (Sesbania exaltata). Briefly: Test Example 4: soil surface treatment on upland fields. As to conditions: examined after 25 days, index 0-5. As for the experimental part:
(§1) Soil Surface Treatment on upland fields Plastic pots which have an area of (26.5×19)cm^2 and a depth of 7 cm were filled with upland soil, seeded with hemp sesbania (Sesbania exaltata), barnyardgrass (Echinochloa crus-gali) and johnsongrass (Sorghum halepense). Each of the test compounds was formulated into emulsifiable concentrates according to Formulation Example 2, which was diluted with a designated amount of water, and such was uniformly sprayed over the soil surface in the pots with a sprayer at a volume of 100 liters per hectare. After the application, the test were grown in a greenhouse for 25 days, and the herbicidal activity was examined.

Assay [3] has as its system barnyardgrass (Echinochloa crus-gali). The description is as above. The following applies: examined after 25 days, index 0-5. How it is done: as §1
The subject of assay [4] is johnsongrass (Sorghum halepense). The assay is described as above. The following applies: examined after 25 days, index 0-5. As for the experimental part:
as §1

Assay [5] shares this test system. The assay can be described thus: Test Example 6: soil surface treatment on upland fields. The following applies: examined after 25 days, index 0-5. As for the experimental part: Soil Surface Treatment on Upland Fields Plastic pots which have an area of (26.5×19)cm^2 and a depth of 7 cm were filled with upland soil, seeded with johnsongrass (Sorghum halepense). Each of the test compounds was formulated into emulsifiable concentrates according to Formulation Example 2, which was diluted with a designated amount of water, and such was uniformly sprayed over the soil surface in the pots with a sprayer at a volume of 1000 liters per hectare. After the application, the test plants were placed in a greenhouse for 25 days, and the herbicidal activity was examined.

For assay [6] the test system is unchanged. The assay can be described thus: Test Example (Table 3): soil incorporation treatment on upland fields. The following applies: examined after 19 days, index 0-5. The text has this: Soil Incorporation Treatment on Upland Fields
Cylindrical plastic pots of 10 cm in diameter and a 10 cm in depth were filled with upland soil. The soil from the surface to 3 cm in depth was taken and mixed with the dilution which was given by diluting the emulsifiable concentrates of the test compounds, formulated according to Formulation Example 2, with water at a volume of 606 liters per hectare. Thereafter, the treated soil was put back to the pots, in which johnsongrass (Sorghum halepense) was sowed at 1.5 cm in depth. The test plants were grown in a greenhouse for 19 days, and the herbicidal activity was examined.

The test system is the same in assay [7]. Briefly: Test Example 2: soil surface treatment on upland fields. As to conditions: examined after 25 days, index 0-5. How it is done: Soil Surface Treatment on Upland Fields
(§2) Plastic pots which have an area of (26.5×19)cm^2 and a depth of 7 cm were filled with upland soil, seeded with johnsongrass (Sorghum halepense). Each of the test compounds was formulated into emulsifiable concentrates according to Formulation Example 2, which was diluted with a designated amount of water, and such was uniformly sprayed over the soil surface in the pots with a sprayer at a volume of 1000 liters per hectare. After the application, the test plants were grown in a greenhouse for 25 days, and the herbicidal activity was examined.

In assay [8] the test system is common cocklebur (Xanthium strumarium). Briefly: Test Example 1: foliar treatment on upland fields. The following applies: 1 g/ha active ingredient; foliar spray on 21-day plants, 1% Agri-Dex; examined after 21 days; index 0-5. As for the experimental part:
Foliar Treatment on Upland Fields
as §2, with “with common cocklebur (Xanthium strumarium) and were given 21 days to grow in a greenhouse.” for “with johnsongrass (Sorghum halepense).”, “of water containing 1% Agri-Dex (adjuvant produced by Helena Chemical Company),” for “of water,”, “the foliage of” for “the soil surface in”, “the test plants” for “the pots”, “in the” for “in a”, “for 21” for “for 25”

The structures appear in SMILES notation.

From patent US6391826B1, “Optically active uracil compounds” (Sumitomo Chemical Company, Limited, priority 1998, dated 2002) come the findings set out here.

As to `CCOC(=O)C(C)Oc1cc(-n2c(=O)cc(C(F)(F)F)n(C)c2=O)c(F)cc1Cl` (racemic) [Comparative Compound 2, ethyl (2RS)-2-[2-chloro-4-fluoro-5-[3-methyl-2,6-dioxo-4-(trifluoromethyl)-1,2,3,6-tetrahydropyrimidin-1-yl]phenoxy]propionate], the “Herbicidal Activity johnsongrass” value in assay [1] (20 g/ha) amounted to 1; in assay [1] (40 g/ha), 2; in assay [1] (80 g/ha) it was 4. Besides, the “Herbicidal Activity hemp sesbania” value in assay [2] (16 g/ha) is reported as 0; in assay [2] (32 g/ha), 2; in assay [2] (63 g/ha), 3; in assay [2] (125 g/ha), 4. In addition, the “Herbicidal Activity barnyard-grass” value in assay [3] (16 g/ha) was 0; in assay [3] (32 g/ha), 3; in assay [3] (63 g/ha) it was 3; in assay [3] (125 g/ha), 5. Also, the “Herbicidal Activity johnson-grass” value is listed as 0 in assay [4] (16 g/ha), 2 in assay [4] (32 g/ha), 3 in assay [4] (63 g/ha) and 4 in assay [4] (125 g/ha).
For `C=CCOC(=O)C(C)Oc1cc(-n2c(=O)cc(C(F)(F)F)n(C)c2=O)c(F)cc1Cl` (racemic) [Comparative Compound 3, allyl (2RS)-2-[2-chloro-4-fluoro-5-[3-methyl-2,6-dioxo-4-(trifluoromethyl)-1,2,3,6-tetrahydropyrimidin-1-yl]phenoxy]propionate, reference compound], the entries for the “Herbicidal Activity johnsongrass” value in assay [5] (16 g/ha), in assay [5] (32 g/ha) and in assay [5] (63 g/ha) were 0, 1 and 2, respectively.
`COC(=O)C(C)Oc1cc(-n2c(=O)cc(C(F)(F)F)n(C)c2=O)c(F)cc1Cl` (single isomer, unassigned) [Present Compound 6, methyl 2-[2-chloro-4-fluoro-5-[3-methyl-2,6-dioxo-4-(trifluoromethyl)-1,2,3,6-tetrahydropyrimidin-1-yl]phenoxy]propionate]: the “Herbicidal Activity johnsongrass” value in assay [6] (20 g/ha) was found to be 3; in assay [6] (40 g/ha), 5; in assay [6] (80 g/ha), 5; in assay [7] (16 g/ha), 4; in assay [7] (32 g/ha), 5; in assay [7] (63 g/ha), 5.
Take `COC(=O)C(C)Oc1cc(-n2c(=O)cc(C(F)(F)F)n(C)c2=O)c(F)cc1Cl` (single isomer, unassigned) [Present Compound 7, methyl 2-[2-chloro-4-fluoro-5-[3-methyl-2,6-dioxo-4-(trifluoromethyl)-1,2,3,6-tetrahydropyrimidin-1-yl]phenoxy]propionate]: the “Herbicidal Activity johnsongrass” value is 2 in assay [6] (20 g/ha); 5 in assay [6] (40 g/ha); 5 in assay [6] (80 g/ha); 4 in assay [7] (16 g/ha); 5 in assay [7] (32 g/ha); 5 in assay [7] (63 g/ha).
As to `COC(=O)[C@H](C)Oc1cc(-n2c(=O)cc(C(F)(F)F)n(C)c2=O)c(F)cc1Cl` [Comparative Compound 1, methyl (2S)-2-[2-chloro-4-fluoro-5-[3-methyl-2,6-dioxo-4-(trifluoromethyl)-1,2,3,6-tetrahydropyrimidin-1-yl]phenoxy]propionate, reference compound], in assay [8], the “Herbicidal Activity Common Cocklebur” value turned out to be 0.
`COC(=O)C(C)Oc1cc(-n2c(=O)cc(C(F)(F)F)n(C)c2=O)c(F)cc1Cl` (stereo not shown) [Comparative Compound 4, methyl 2-[2-chloro-4-fluoro-5-[3-methyl-2,6-dioxo-4-(trifluoromethyl)-1,2,3,6-tetrahydropyrimidin-1-yl]phenoxy]propionate, reference compound]: the “Herbicidal Activity johnsongrass” value in assay [6] (20 g/ha) is listed as 0; in assay [6] (40 g/ha) it was 2; in assay [6] (80 g/ha), 4; in assay [7] (16 g/ha) it was 1; in assay [7] (32 g/ha), 2; in assay [7] (63 g/ha) it was 4.
In the case of `CCOC(=O)[C@@H](C)Oc1cc(-n2c(=O)cc(C(F)(F)F)n(C)c2=O)c(F)cc1Cl` [Present Compound 2, ethyl (2R)-2-[2-chloro-4-fluoro-5-[3-methyl-2,6-dioxo-4-(trifluoromethyl)-1,2,3,6-tetrahydropyrimidin-1-yl]phenoxy]propionate], the “Herbicidal Activity johnsongrass” value is given as 4 in assay [1] (20 g/ha), 5 in assay [1] (40 g/ha) and 5 in assay [1] (80 g/ha). Further, the “Herbicidal Activity hemp sesbania” value in assay [2] (16 g/ha) is recorded as 2; in assay [2] (32 g/ha), 5; in assay [2] (63 g/ha), 5. Also, the “Herbicidal Activity barnyard-grass” value in assay [3] (16 g/ha), in assay [3] (32 g/ha) and in assay [3] (63 g/ha) was 5 each time. Moreover, the “Herbicidal Activity johnson-grass” value was 3 in assay [4] (16 g/ha), 5 in assay [4] (32 g/ha) and 5 in assay [4] (63 g/ha).
In the case of `C=CCOC(=O)[C@@H](C)Oc1cc(-n2c(=O)cc(C(F)(F)F)n(C)c2=O)c(F)cc1Cl` [Present Compound 3, allyl (2R)-2-[2-chloro-4-fluoro-5-[3-methyl-2,6-dioxo-4-(trifluoromethyl)-1,2,3,6-tetrahydropyrimidin-1-yl]phenoxy]propionate], the “Herbicidal Activity johnsongrass” value is 3 in assay [5] (16 g/ha), 5 in assay [5] (32 g/ha) and 5 in assay [5] (63 g/ha).
Turning to `COC(=O)[C@@H](C)Oc1cc(-n2c(=O)cc(C(F)(F)F)n(C)c2=O)c(F)cc1Cl` [Present Compound 5, methyl (2R)-2-[2-chloro-4-fluoro-5-[3-methyl-2,6-dioxo-4-(trifluoromethyl)-1,2,3,6-tetrahydropyrimidin-1-yl]phenoxy]propionate], the “Herbicidal Activity johnsongrass” value is on record as 4 in assay [6] (20 g/ha); 5 in assay [6] (40 g/ha); 5 in assay [6] (80 g/ha); 4 in assay [7] (16 g/ha); 5 in assay [7] (32 g/ha); 5 in assay [7] (63 g/ha).
